Measured values from US20050164370A1 (priority 2003, published 2005).

Experiments:
Format in all cases: cell-based, yeast
[1] = tested on: transformed cells TM182-CRE1-CYC1IPT4; experiment: Liquid culture of transformed cell TM182-CRE1-CYC1IPT4 with examinee substance, absorbance; conditions: Table 3, TM182-CRE1-CYC1-IPT4, 1 μL of 200 ppm DMSO solution per 100 μL, DOHLU+Glu, 30° C. for 24 hours
Method: (§1) The thus obtained culture solutions were diluted with DOHLU+Glu culture medium so that OD600 became 0.200, and then the diluted ones were further diluted with DOHLU+Glu culture medium at a dilution rate of 1/200 to obtain diluted pre-cultured solutions.
(§2) A 96-well assay plate was prepared by filling each well with 1 μL of a DMSO solution of an examinee substance (Abscisic acid or 6-Benzyl aminopurine). In this regard, it is to be noted that the DMSO solution of a examinee substance was prepared so that the concentration thereof became 200 ppm. Simultaneously, an assay plate was prepared by filling each well with 1 μL of DMSO as a blank section.
(§3) Each of the diluted pre-cultured solutions was added in a volume of 100 μL per each well of both of the assay plates, and was cultured at 30° C. for 24 hours. After incubation, the turbidity of each well was measured using a plate reader. The absorbance (OD600) of each of the culture solutions of the transformed cells containing the examinee substance was shown in Table 3. […] Further, the growth speeds of the transformed cells TM182-CRE1-CYC1IPT4 and TM182-CRE1-ADHIPT5 in the culture medium to which 6-Benzyl aminopurine was added were faster than those in the culture medium to which only DMSO was added.

[2] = tested on: transformed cells TM182-CYC1-CYC1IPT5; experiment: Liquid culture of transformed cell TM182-CYC1-CYC1IPT5 with examinee substance, absorbance; conditions: DOHLU+Glu, 30° C. for 24 hours
Method: as §1, §2, §3
as §3, with “4.” for “3.”, “TM182-CRE1-ADHIPT4, TM182-AHK2-CYC1IPT4, TM182-AHK2-CYC1IPT5” for “TM182-CRE1-CYC1IPT4”, “TM182-AHK2-ADHIPT5” for “TM182-CRE1-ADHIPT5”

cytokinin receptor AHK2Δ = target: T1, cytokinin receptor AHK2Δ (Arabidopsis thaliana, UniProt Q9C5U2); parameters: added initiator methionine (ATG added at the 5' end) (N); expressed in transfected cells; host or cells: yeast strain TM182 carrying plasmid p415CYC-AHK2Δ (pHM-1 backbone, CYC1 promoter); conditions: TM182-AHK2Δ, examinee substance 100 μM, DOLU+Glu, 30° C. for 24 hours
T1 sequence (Q9C5U2 196-1176): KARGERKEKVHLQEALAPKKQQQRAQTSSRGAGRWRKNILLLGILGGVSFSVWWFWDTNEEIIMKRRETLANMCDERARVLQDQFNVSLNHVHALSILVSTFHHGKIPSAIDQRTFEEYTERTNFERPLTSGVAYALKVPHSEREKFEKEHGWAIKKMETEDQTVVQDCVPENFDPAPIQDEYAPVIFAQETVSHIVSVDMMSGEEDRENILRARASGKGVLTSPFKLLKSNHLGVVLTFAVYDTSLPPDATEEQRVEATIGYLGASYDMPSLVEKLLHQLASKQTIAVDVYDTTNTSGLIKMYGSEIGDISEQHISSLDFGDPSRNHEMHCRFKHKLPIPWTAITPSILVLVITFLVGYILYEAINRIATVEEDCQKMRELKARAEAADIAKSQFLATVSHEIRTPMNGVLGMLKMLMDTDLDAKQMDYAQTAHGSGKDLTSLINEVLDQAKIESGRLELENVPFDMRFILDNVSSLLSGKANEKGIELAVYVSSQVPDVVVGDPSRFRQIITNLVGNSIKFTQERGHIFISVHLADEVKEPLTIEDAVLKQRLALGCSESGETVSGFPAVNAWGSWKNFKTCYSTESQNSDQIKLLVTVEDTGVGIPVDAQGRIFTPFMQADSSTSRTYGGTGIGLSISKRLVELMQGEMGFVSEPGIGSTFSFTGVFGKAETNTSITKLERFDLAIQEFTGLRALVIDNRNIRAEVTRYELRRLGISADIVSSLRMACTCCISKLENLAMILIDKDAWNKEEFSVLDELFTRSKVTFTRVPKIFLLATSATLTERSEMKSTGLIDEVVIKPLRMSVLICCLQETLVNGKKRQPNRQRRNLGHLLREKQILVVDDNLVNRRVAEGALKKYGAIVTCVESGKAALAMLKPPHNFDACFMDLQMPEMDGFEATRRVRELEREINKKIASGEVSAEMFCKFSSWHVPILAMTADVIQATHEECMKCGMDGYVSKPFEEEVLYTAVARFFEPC
Method: The transformed cells TM182-AHK2, TM182-AHK2Δ and TM182-AHK3 produced in the reference example 1 were inoculated in 200 ml of DOLU+Gal culture media and pre-cultured at 30° C. for 36 hours. The pre-cultured solutions were diluted with DOLU+Glu media as to become 0.100 as the optical density (OD600) and further the resultants were diluted with DOLU+Glu media at a dilution rate of 1/200 to obtain diluted pre-cultured solutions.
An assay plate was prepared by filling respective wells of a 96-well plate with 20 μl of solutions which were prepared by diluting DMSO solution (10 mM) of each examinee substance with DOLU+Glu medium at a dilution rate of 1/100, said solutions containing each examinee substance to be […]. […]
The diluted pre-cultured solutions were added in 200 μl each into the respective wells of both assay plates and cultured at 30° C. for 24 hours and then the optical density (OD620) of each well was measured by a plate reader. The agonist-activity of the examinee substances to the cytokinin receptor was detected by comparing the optical density measured in the testing sections to which the examinee substances were added with the optical density measured in the blank sections.

[3] = Table 3, TM182-CYC1-CYC1-IPT5, 1 μL of 200 ppm DMSO solution per 100 μL
[4] = Table 4, TM182-CYC1-CYC1-IPT5, 1 μL of 200 ppm DMSO solution per 100 μL

CC1=CC(=O)CC(C)(C)[C@@]1(O)/C=C/C(C)=C\C(=O)O [Compound A, Abscisic acid]
absorbance (OD600) of the culture solution [1]: 0.102 | absorbance (OD600) of the culture solution [2, 3]: 0.041 | absorbance (OD600) of the culture solution [2, 4]: 0.036 | optical density (OD620) of the culture solution (cytokinin receptor AHK2Δ): 0

c1ccc(CNc2ncnc3nc[nH]c23)cc1 [Compound B, 6-Benzyl aminopurine]
absorbance (OD600) of the culture solution [1]: 0.260 | absorbance (OD600) of the culture solution [2, 3]: 0.043 | absorbance (OD600) of the culture solution [2, 4]: 0.035 | optical density (OD620) of the culture solution (cytokinin receptor AHK2Δ): 0.89
